Data reported in patent US20210113501A1, “METHOD OF ADMINISTERING BETA-HYDROXY-BETA-METHYLBUTYRATE (HMB)” (Metabolic Technologies, Inc., priority 2009, published 2021).
Marks after values point to notes of the source that are not given here.

Assay: Study 1 hematology (complete blood count)
Format: in vivo, human
Details: for Basophils (absolute) % Change / Basophils, % - % Change / Eosinophils (absolute) % Change / Eosinophils, % - % Change / Hematocrit % Change / Hemoglobin % Change / Lymphocytes (absolute) % Change / Lymphocytes, % - % Change / MCH % Change / MCHC % Change / MCV % Change / Monocytes (absolute) % Change / Monocytes, % - % Change / Neutrophils (absolute) % Change / Neutrophils, % - % Change / Platelets % Change / RBC % Change / RDW % Change / WBC % Change: Before to After
Method: Study 1 design. For study 1 the subjects reported to the laboratory in the morning following an overnight fast. Before ingestion of one of the supplemental treatments, a flexible sterile polyethylene catheter was inserted into a forearm vein using sterile procedures and a pre-ingestion blood sample was drawn. Subsequent blood samples were taken at 0, 2, 5, 10, 15, 25, 35, 45, 60, 90, 120 and 180 min after ingestion of the treatment. Plasma was separated and samples were stored frozen at −70° C. for analysis of HMB concentration. In addition, a portion of the pre-ingestion and 180 minute blood samples were used for measurements (LabCorp, Kansas City, Mo.) of glucose, uric acid, blood urea nitrogen (BUN), creatinine, sodium, potassium, chloride, carbon dioxide, phosphorous, protein, albumin, globulin, albumin:globulin ratio, total bilirubin, direct bilirubin, alkaline phosphatase, lactate dehydrogenase, aspartate aminotransferase (AST), alanine aminotransferase (ALT), gamma-glutamyl transpeptidase (GGT), iron binding capacity (TIBC), unsaturated iron binding capacity (UIBC), iron, iron saturation, total cholesterol, triglycerides, high density lipoprotein (HDL), low density lipoprotein (LDL), and cholesterol ratio. A complete blood count (CBC) was also performed before and after the 180 min treatment period. Subjects also completed a brief questionnaire to report any physical symptoms (such as nausea, headache, etc) they may have experienced during the experiment.
The data were analyzed using a crossover design with Proc GLM in SAS. (45) For the timed sampling of plasma HMB a repeated measures polynomial model was used. The model included subject, order, and treatment main effects and time by treatment interaction where appropriate. For other parameters Proc GLM was also used with subject, order, and treatment main effects and the p values are reported for the treatment main effect. Statistical significance was determined for p<0.05 and a trend was determined for 0.05<p<0.10.

CC(C)(O)CC(=O)[O-].CC(C)(O)CC(=O)[O-].[Ca+2] [CaHMB, calcium β-hydroxy-β-methylbutryate, reference compound]
Basophils (absolute) (After (180 min)): 0.04 ± 0.0 ×10^3/μL
Basophils, % (After (180 min)): 0.4 ± 0.2%
Eosinophils (absolute) (After (180 min)): 0.1 ± 0.04 ×10^3/μL
Eosinophils, % (After (180 min)): 2.1 ± 0.6%
Hematocrit (After (180 min)): 38.7 ± 1.3%
Hemoglobin (After (180 min)): 13.4 ± 0.5 g/dL
Lymphocytes (absolute) (After (180 min)): 2.1 ± 0.2 ×10^3/μL
Lymphocytes, % (After (180 min)): 34.0 ± 3.4%
MCH (After (180 min)): 31.3 ± 0.6 pg
MCHC (After (180 min)): 34.7 ± 0.2 g/dL
MCV (After (180 min)): 90.4 ± 1.5 fL
Monocytes (absolute) (After (180 min)): 0.5 ± 0.1 ×10^3/μL
Monocytes, % (After (180 min)): 7.4 ± 0.7%
Neutrophils (absolute) (After (180 min)): 3.8 ± 0.7 ×10^3/μL
Neutrophils, % (After (180 min)): 56.1 ± 3.8%
Platelets (After (180 min)): 202.9 ± 16^ ×10^3/μL
RBC (After (180 min)): 4.3 ± 0.2 ×10^6/µL
RDW (After (180 min)): 13.1 ± 0.2%
WBC (After (180 min)): 6.4 ± 0.7 ×10^3/μL
Basophils (absolute) (Before): 0.05 ± 0.0 ×10^3/μL
Basophils, % (Before): 0.5 ± 0.2%
Eosinophils (absolute) (Before): 0.2 ± 0.04 ×10^3/μL
Eosinophils, % (Before): 2.5 ± 0.4%
Hematocrit (Before): 38.3 ± 1.1%
Hemoglobin (Before): 13.3 ± 0.4 g/dL
Lymphocytes (absolute) (Before): 2.5 ± 0.1 ×10^3/μL
Lymphocytes, % (Before): 39.6 ± 2.8%
MCH (Before): 31.2 ± 0.6 pg
MCHC (Before): 34.7 ± 0.1 g/dL
MCV (Before): 90.0 ± 1.5 fL
Monocytes (absolute) (Before): 0.5 ± 0.1 ×10^3/μL
Monocytes, % (Before): 7.1 ± 0.9%
Neutrophils (absolute) (Before): 3.3 ± 0.4 ×10^3/μL
Neutrophils, % (Before): 50.3 ± 3.3%
Platelets (Before): 209.0 ± 14^ ×10^3/μL
RBC (Before): 4.3 ± 0.2 ×10^6/µL
RDW (Before): 13.1 ± 0.2%
WBC (Before): 6.4 ± 0.4 ×10^3/μL
Basophils (absolute) % Change: −25.0%
Basophils, % - % Change: −25.0%
Eosinophils (absolute) % Change: −21.4%
Eosinophils, % - % Change: −15.0%
Hematocrit % Change: 1.2%
Hemoglobin % Change: 1.2%
Lymphocytes (absolute) % Change: −15.6%
Lymphocytes, % - % Change: −14.2%
MCH % Change: 0.3%
MCHC % Change: 0.1%
MCV % Change: 0.4%
Monocytes (absolute) % Change: 8.3%
Monocytes, % - % Change: 3.5%
Neutrophils (absolute) % Change: 14.5%
Neutrophils, % - % Change: 11.7%
Platelets % Change: −2.9%
RBC % Change: 1.0%
RDW % Change: 0.1%
WBC % Change: 0.3%

CC(C)(O)CC(=O)O [HMB-Acid Gel Sublingual, 3-hydroxy-3-methylbutyric acid]
Basophils (absolute) (After (180 min)): 0.03 ± 0.02 ×10^3/μL
Basophils, % (After (180 min)): 0.3 ± 0.2%
Eosinophils (absolute) (After (180 min)): 0.1 ± 0.02 ×10^3/μL
Eosinophils, % (After (180 min)): 1.8 ± 0.3%
Hematocrit (After (180 min)): 38.5 ± 1.7%
Hemoglobin (After (180 min)): 13.3 ± 0.6 g/dL
Lymphocytes (absolute) (After (180 min)): 2.2 ± 0.2 ×10^3/μL
Lymphocytes, % (After (180 min)): 35.5 ± 2.1%
MCH (After (180 min)): 31.0 ± 0.5 pg
MCHC (After (180 min)): 34.5 ± 0.2 g/dL
MCV (After (180 min)): 89.9 ± 1.7 fL
Monocytes (absolute) (After (180 min)): 0.5 ± 0.05 ×10^3/μL
Monocytes, % (After (180 min)): 7.1 ± 0.7%
Neutrophils (absolute) (After (180 min)): 3.5 ± 0.3 ×10^3/μL
Neutrophils, % (After (180 min)): 55.4 ± 2.9%
Platelets (After (180 min)): 213.9 ± 19.1 ×10^3/μL
RBC (After (180 min)): 4.3 ± 0.2 ×10^6/µL
RDW (After (180 min)): 13.3 ± 0.2%
WBC (After (180 min)): 6.3 ± 0.4 ×10^3/μL
Basophils (absolute) (Before): 0.03 ± 0.02 ×10^3/μL
Basophils, % (Before): 0.3 ± 0.2%
Eosinophils (absolute) (Before): 0.2 ± 0.03 ×10^3/μL
Eosinophils, % (Before): 2.4 ± 0.4%
Hematocrit (Before): 37.8 ± 1.6%
Hemoglobin (Before): 13.1 ± 0.6 g/dL
Lymphocytes (absolute) (Before): 2.8 ± 0.2 ×10^3/μL
Lymphocytes, % (Before): 43.0 ± 1.4%
MCH (Before): 31.0 ± 0.5 pg
MCHC (Before): 34.7 ± 0.2 g/dL
MCV (Before): 89.6 ± 1.6 fL
Monocytes (absolute) (Before): 0.5 ± 0.1 ×10^3/μL
Monocytes, % (Before): 7.0 ± 1.0%
Neutrophils (absolute) (Before): 3.1 ± 0.3 ×10^3/μL
Neutrophils, % (Before): 47.4 ± 2.2%
Platelets (Before): 221.3 ± 20.8 ×10^3/μL
RBC (Before): 4.2 ± 0.2 ×10^6/µL
RDW (Before): 13.2 ± 0.2%
WBC (Before): 6.6 ± 0.4 ×10^3/μL
Basophils (absolute) % Change: 0.0%
Basophils, % - % Change: 0.0%
Eosinophils (absolute) % Change: −28.6%
Eosinophils, % - % Change: −26.3%
Hematocrit % Change: 2.0%
Hemoglobin % Change: 1.4%
Lymphocytes (absolute) % Change: −22.1%
Lymphocytes, % - % Change: −17.4%
MCH % Change: 0.0%
MCHC % Change: −0.5%
MCV % Change: 0.3%
Monocytes (absolute) % Change: 0.0%
Monocytes, % - % Change: 1.8%
Neutrophils (absolute) % Change: 11.6%
Neutrophils, % - % Change: 16.9%
Platelets % Change: −3.3%
RBC % Change: 1.7%
RDW % Change: 0.9%
WBC % Change: −4.2%

CC(C)(O)CC(=O)O [HMB-Acid Gel Swallow, 3-hydroxy-3-methylbutyric acid]
Basophils (absolute) (After (180 min)): 0.04 ± 0.02 ×10^3/μL
Basophils, % (After (180 min)): 0.4 ± 0.2%
Eosinophils (absolute) (After (180 min)): 0.1 ± 0.02 ×10^3/μL
Eosinophils, % (After (180 min)): 2.4 ± 0.4%
Hematocrit (After (180 min)): 37.6 ± 1.5%
Hemoglobin (After (180 min)): 13.0 ± 0.5 g/dL
Lymphocytes (absolute) (After (180 min)): 2.2 ± 0.1 ×10^3/μL
Lymphocytes, % (After (180 min)): 37.4 ± 1.9%
MCH (After (180 min)): 31.4 ± 0.8 pg
MCHC (After (180 min)): 34.6 ± 0.3 g/dL
MCV (After (180 min)): 90.0 ± 1.5 fL
Monocytes (absolute) (After (180 min)): 0.5 ± 0.04 ×10^3/μL
Monocytes, % (After (180 min)): 7.0 ± 0.6%
Neutrophils (absolute) (After (180 min)): 3.3 ± 0.2 ×10^3/μL
Neutrophils, % (After (180 min)): 52.9 ± 2.2%
Platelets (After (180 min)): 202.4 ± 25. ×10^3/μL
RBC (After (180 min)): 4.2 ± 0.2 ×10^6/µL
RDW (After (180 min)): 13.2 ± 0.3%
WBC (After (180 min)): 6.1 ± 0.3 ×10^3/μL
Basophils (absolute) (Before): 0.01 ± 0.01^a ×10^3/μL
Basophils, % (Before): 0.1 ± 0.1^a %
Eosinophils (absolute) (Before): 0.2 ± 0.04 ×10^3/μL
Eosinophils, % (Before): 2.5 ± 0.3%
Hematocrit (Before): 37.6 ± 1.6%
Hemoglobin (Before): 13.1 ± 0.5 g/dL
Lymphocytes (absolute) (Before): 3.1 ± 0.3 ×10^3/μL
Lymphocytes, % (Before): 43.8 ± 2.8%
MCH (Before): 31.2 ± 0.7 pg
MCHC (Before): 34.7 ± 0.3 g/dL
MCV (Before): 90.1 ± 1.3 fL
Monocytes (absolute) (Before): 0.5 ± 0.1 ×10^3/μL
Monocytes, % (Before): 7.6 ± 0.7%
Neutrophils (absolute) (Before): 3.0 ± 0.2 ×10^3/μL
Neutrophils, % (Before): 46.0 ± 2.8%
Platelets (Before): 195.0 ± 31.5 ×10^3/μL
RBC (Before): 4.2 ± 0.2 ×10^6/µL
RDW (Before): 13.2 ± 0.2%
WBC (Before): 6.7 ± 0.5 ×10^3/μL
Basophils (absolute) % Change: 200.0%
Basophils, % - % Change: 200.0%
Eosinophils (absolute) % Change: −41.2%
Eosinophils, % - % Change: −5.0%
Hematocrit % Change: −0.1%
Hemoglobin % Change: −0.4%
Lymphocytes (absolute) % Change: −29.1%
Lymphocytes, % - % Change: −14.6%
MCH % Change: 0.7%
MCHC % Change: −0.3%
MCV % Change: −0.1%
Monocytes (absolute) % Change: −7.7%
Monocytes, % - % Change: −8.2%
Neutrophils (absolute) % Change: 10.9%
Neutrophils, % - % Change: 14.9%
Platelets % Change: 3.8%
RBC % Change: 0.1%
RDW % Change: 0.4%
WBC % Change: −10.2%
decrease in absolute lymphocyte numbers over the measurement period (p<0.04): significantly greater decrease
